Here are results for 1 compound from ChEMBL document CHEMBL2073942, “Localization of organic anion transport protein 2 in the apical region of rat retinal pigment epithelium” (Invest Ophthalmol Vis Sci, 2002).

The assay concerns the target T1, Solute carrier organic anion transporter family member 1A4 (Rattus norvegicus, UniProt O35913).
T1 sequence (O35913 whole entry): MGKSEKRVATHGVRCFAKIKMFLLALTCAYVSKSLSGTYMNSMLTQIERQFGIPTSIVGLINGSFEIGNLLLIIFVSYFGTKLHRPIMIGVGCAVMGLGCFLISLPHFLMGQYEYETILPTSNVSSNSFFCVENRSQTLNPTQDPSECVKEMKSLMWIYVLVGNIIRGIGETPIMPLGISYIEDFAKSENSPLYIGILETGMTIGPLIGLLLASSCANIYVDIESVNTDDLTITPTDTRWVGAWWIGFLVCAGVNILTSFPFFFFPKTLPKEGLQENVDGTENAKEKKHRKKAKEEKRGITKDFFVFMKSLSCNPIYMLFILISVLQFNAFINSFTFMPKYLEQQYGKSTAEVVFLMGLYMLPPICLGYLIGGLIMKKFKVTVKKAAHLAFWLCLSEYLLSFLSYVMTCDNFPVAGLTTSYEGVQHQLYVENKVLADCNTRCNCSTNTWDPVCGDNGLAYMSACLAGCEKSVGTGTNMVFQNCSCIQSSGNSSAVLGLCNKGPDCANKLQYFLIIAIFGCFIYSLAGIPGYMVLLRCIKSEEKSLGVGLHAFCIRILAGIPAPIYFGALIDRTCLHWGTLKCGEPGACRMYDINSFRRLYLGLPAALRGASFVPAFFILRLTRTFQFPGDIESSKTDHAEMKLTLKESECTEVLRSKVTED
Nature of the assay: TP_TRANSPORTER: inhibition of Digoxin uptake in Xenopus laevis oocytes. It counts as functional, cell-based, Oocyte.

Each structure is given as a SMILES string.

What is called Ki is a measure of affinity in units of concentration, obtained from inhibition or displacement. A high value points to a looser hold on the target. On to `CC1=C(/C=C/C(C)=C/C=C/C(C)=C/c2cc(/C=C/C=C(C)/C=C/C3=C(C)CCCC3(C)C)cc[n+]2CCO)C(C)(C)CCC1`, for which the Ki came out at 37 µM.
